Literature values in patent US20070059360A1, “WATER-DISPERSIBLE ANTI-RETROVIRAL PHARMACEUTICAL COMPOSITIONS” (priority 2005, published 2007).

Biological target: HIV reverse transcriptase (Human immunodeficiency virus type 1 group M subtype B, UniProt P04585)
Settings: in vitro; reported by S. A. Riddler, et al

## Cc1cn([C@H]2C=C[C@@H](CO)O2)c(=O)[nH]c1=O [Stavudine, 2′,3′-didehydro-3′-deoxythymidine]
  Inhibition of HIV reverse transcriptase: potent inhibitor
